Data on 2 molecules can be found in patent publication US5380359A, “Cosmetics based on naturally derived melanin-coated pigments” (Kyowa Hakko Kogyo Co., Ltd., priority 1992, dated 1995).

The nature of this experiment: Anti-oxidizing property: lipid peroxide elimination rate (Determiner LPO, cumene hydroperoxide). In kind it is biochemical. Particulars: concentration of 0.014%. Here is the method:
Purified water was added to 0.1 g of microbial melanin, synthetic melanin or sepia melanin and 0.1 g of sodium hydroxide to prepare 100 ml of solution, and the pH was adjusted to 7 with hydrochloric acid.
To 0.1 g of dl-α-tocopherol was added ethanol to prepare 100 ml of solution.
To 0.1 g of ascorbic acid was added purified water to prepare 100 ml of solution.
To 5.02 mg of an 80% cumene hydroperoxide (hereinafter abbreviated to CPO) solution was added purified water to prepare 100 ml of solution (264 nmol/ml).
The microbial melanin solution, the ascorbic acid solution, the dl-α-tocopherol solution, the synthetic melanin solution or the sepia melanin solution was added to a system in which CPO was reacted with a methylene blue derivative in the presence of hemoglobin as a catalyst, using Determiner LPO (product of Kyowa Medex Co., Ltd.) as a reaction reagent, thereby producing an equimolar amount of methylene blue which developed the color of the system. The anti-oxidizing property of the microbial melanin, ascorbic acid, dl-α-tocopherol, the synthetic melanin and the sepia melanin was determined on the basis of the degree of inhibition of the production of methylene blue. […]
In the equation, As indicates the absorbance of the test sample, Astd the absorbance of the standard sample, and AB the absorbance of the blank test sample. […]

`Cc1c(C)c2c(c(C)c1O)CCC(C)(CCCC(C)CCCC(C)CCCC(C)C)O2` (racemic) [dl-α-tocopherol]: the “Lipid peroxide elimination rate” value worked out at 72.4%.

On to `O=C1O[C@H]([C@@H](O)CO)C(O)=C1O` [Ascorbic acid, ascorbic acid], for which the “Lipid peroxide elimination rate” value was 97.4%.
